Results as given in patent US20240360194A1, “New Peptides as Potent and Selective GIP Receptor Agonists” (Sanofi, priority 2021, published 2024).
Numbered stars: 1 amine (or outer) side, 2 acyl side, 3 side chain; on linkers, the order of the positions; unused ones are H or OH. Square brackets hold non-standard residues; d marks the D form. Side chains are listed from the residue outwards. Ends that are not written are not given here. Peptide text beside a SMILES is read from it. * marks the point of attachment. C18 diacid = O=C(O)CCCCCCCCCCCCCCCCC(=O)*; γGlu = O=C(O)[C@H](CCC(=O)[*:2])N[*:1]; αMeV = CC(C)[C@](C)(N)C(=O)O; AEEA = NCCOCCOCC(=O)O; Aib = CC(C)(N)C(=O)O

How the values were obtained:
[1] = molecular target: T1, human GIP receptor (hGIPR) (Homo sapiens, UniProt P48546); assay: In vitro cellular cAMP assay for GIP receptor efficacy (HEK-293 cell line over-expressing receptor); format: cell-based; conditions: EC50 hGIPR 0.1% BSA, HEK-293, 0.1% BSA
T1 sequence (P48546 22-466): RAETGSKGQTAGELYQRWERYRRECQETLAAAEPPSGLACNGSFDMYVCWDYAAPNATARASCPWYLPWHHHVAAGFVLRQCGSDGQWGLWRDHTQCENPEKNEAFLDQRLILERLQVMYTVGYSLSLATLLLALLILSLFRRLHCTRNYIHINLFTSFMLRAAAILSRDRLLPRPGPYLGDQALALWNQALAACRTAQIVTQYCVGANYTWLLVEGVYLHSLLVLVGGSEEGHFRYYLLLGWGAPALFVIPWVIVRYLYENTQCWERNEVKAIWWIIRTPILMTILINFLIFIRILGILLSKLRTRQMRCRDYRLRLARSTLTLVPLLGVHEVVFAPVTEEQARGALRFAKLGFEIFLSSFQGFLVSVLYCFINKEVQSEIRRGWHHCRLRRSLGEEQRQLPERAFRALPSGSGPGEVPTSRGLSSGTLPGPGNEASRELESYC

[2] = molecular target: T1, human GIP receptor (hGIPR); assay: Binding assay, displacement of [125I]GIP from HEK-293 membranes over-expressing GIPR (SPA); conditions: [125I]GIP displacement
In short: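 Membranes from HEK-293 cells over-expressing human GIPR or GLP-1R, isolated by homogenising, sonicating and ultracentrifuging at 100000×g into HEPES/EDTA/NaCl buffer with protease inhibitors, were used for binding.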

human GIP receptor [3] = molecular target: T2, human GIP receptor (Homo sapiens, UniProt P48546); assay: In vitro cellular cAMP assay for GIP receptor efficacy (human adipocytes); format: cell-based
T2 construct: human adipocytes endogenously expressing the human GIP receptor; host or cells: human preadipocytes (Lonza) differentiated to adipocytes
T2 sequence (P48546 22-466): T1 sequence (P48546 22-466)
In short: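 cAMP is read by HTRF (665/620 nm ratio, 1 h after reagents in lysis buffer) following 30 min compound exposure at room temperature. Cells are human preadipocyte-derived adipocytes, differentiated 6 days with insulin, dexamethasone, IBMX (200 μM), PPARγ agonist and L-thyroxine, seeded 5000 per well.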

[4] = molecular target: human GLP-1 receptor (hGLP-1R) (Homo sapiens, UniProt P43220); assay: In vitro cellular cAMP assay for GLP-1 receptor efficacy (HEK-293 cell line over-expressing receptor); format: cell-based; conditions: HEK-293, 0.1% BSA
[5] = Solubility assessment (UHPLC-UV of supernatant, target 10 mg/ml); format: physicochemical; conditions: pH 7.4, Soluble amount
In short: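 Peptides at 10 mg/ml (purity-corrected) in 100 mM phosphate pH 7.4, optionally with 2.7 mg/ml m-cresol; gentle agitation 1 h, then 5° C. overnight (24 h). Supernatant after 15 min centrifugation at 2500 RCF quantified by UHPLC-UV, with sequence-based extinction coefficients.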

human GLP-1 receptor = human GLP-1 receptor (human, UniProt P43220 24-463); assay: cell-based or functional assay
human GIP receptor [6] = molecular target: T3, human GIP receptor (human, UniProt P48546 22-466); assay: cell-based or functional assay
T3 sequence (looked up): T1 sequence (P48546 22-466)

human GIP receptor [7] = molecular target: T3, human GIP receptor; assay: cell-based or functional assay; remark: listed apart in the source

human GLP-1 receptor (hGLP-1R), sequence (P43220 24-463): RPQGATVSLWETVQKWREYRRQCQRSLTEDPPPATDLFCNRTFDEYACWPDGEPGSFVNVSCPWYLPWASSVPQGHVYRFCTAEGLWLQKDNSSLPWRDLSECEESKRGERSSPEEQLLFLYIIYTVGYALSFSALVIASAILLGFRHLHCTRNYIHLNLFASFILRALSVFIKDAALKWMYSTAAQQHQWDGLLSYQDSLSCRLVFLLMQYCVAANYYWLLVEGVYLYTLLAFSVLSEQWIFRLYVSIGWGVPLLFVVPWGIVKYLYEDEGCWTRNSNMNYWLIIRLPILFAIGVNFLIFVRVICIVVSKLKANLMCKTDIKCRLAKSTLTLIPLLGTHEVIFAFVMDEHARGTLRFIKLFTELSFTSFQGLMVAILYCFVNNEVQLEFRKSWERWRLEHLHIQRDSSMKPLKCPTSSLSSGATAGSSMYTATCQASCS

With `CC[C@H](C)[C@H](NC(=O)[C@H](Cc1ccccc1)NC(=O)[C@H](CCC(=O)O)NC(=O)[C@H](CCC(=O)O)NC(=O)[C@H](CCC(N)=O)NC(=O)[C@H](Cc1c[nH]cn1)NC(=O)[C@@H](NC(=O)[C@H](CCCNC(=N)N)NC(=O)[C@H](CC(=O)O)NC(=O)[C@H](CCCCNC(=O)COCCOCCNC(=O)COCCOCCNC(=O)CC[C@H](NC(=O)CCCCCCCCCCCCCCCCC(=O)O)C(=O)O)NC(=O)C(C)(C)NC(=O)[C@@H](NC(=O)[C@H](CO)NC(=O)[C@H](CC(C)C)NC(=O)[C@H](CC(=O)O)NC(=O)[C@H](CO)NC(=O)[C@@H](NC(=O)[C@H](Cc1ccccc1)NC(=O)[C@@H](NC(=O)CNC(=O)[C@H](CCC(=O)O)NC(=O)C(C)(C)NC(=O)[C@@H](N)Cc1ccc(O)cc1)[C@@H](C)O)[C@@H](C)CC)[C@@H](C)CC)[C@@H](C)CC)C(=O)N[C@@H](CCC(=O)O)C(=O)N[C@@H](Cc1c[nH]c2ccccc12)C(=O)N[C@@H](CC(C)C)C(=O)N[C@@H](CC(C)C)C(=O)N[C@@H](C)C(=O)N[C@@H](CCC(N)=O)C(=O)N[C@@H](CCC(=O)O)C(=O)NCC(=O)O` [SEQ ID NO: 14, H2N-Y-Aib-E-G-T-F-I-S-D-L-S-I-Aib-K[{AEEA}2-gGlu-C18OH]-D-R-I-H-Q-E-E-F-I-E-W-L-L-A-Q-E-G-OH] (H-Y[Aib]EGTFISDLSI[Aib]K([AEEA-AEEA-γGlu-C18 diacid])DRIHQEEFIEWLLAQEG-OH) the EC50 [1] was 0.0757 nM.

For `CC[C@H](C)[C@H](NC(=O)[C@H](CCCNC(=N)N)NC(=O)[C@H](CC(=O)O)NC(=O)[C@H](CCCCNC(=O)COCCOCCNC(=O)COCCOCCNC(=O)CC[C@H](NC(=O)CCCCCCCCCCCCCCCCC(=O)O)C(=O)O)NC(=O)C(C)(C)NC(=O)[C@@H](NC(=O)[C@H](CO)NC(=O)[C@H](CC(C)C)NC(=O)[C@H](CC(=O)O)NC(=O)[C@H](CO)NC(=O)[C@@H](NC(=O)[C@@](C)(CC)NC(=O)[C@@H](NC(=O)CNC(=O)[C@H](CCC(=O)O)NC(=O)C(C)(C)NC(=O)[C@@H](N)Cc1ccc(O)cc1)[C@@H](C)O)[C@@H](C)CC)[C@@H](C)CC)C(=O)N[C@@H](Cc1c[nH]cn1)C(=O)N[C@@H](CCC(N)=O)C(=O)NC(C)(C)C(=O)N[C@@H](CCC(=O)O)C(=O)N[C@@](C)(Cc1ccccc1)C(=O)N[C@H](C(=O)N[C@@H](CCC(=O)O)C(=O)N[C@@H](Cc1c[nH]c2ccccc12)C(=O)N[C@@H](CC(C)C)C(=O)N[C@@H](CC(C)C)C(=O)N[C@@H](C)C(=O)N[C@@H](CCC(N)=O)C(=O)N[C@@H](CCCNC(=N)N)C(=O)NCC(N)=O)[C@@H](C)CC` [SEQ ID NO: 18, H2N-Y-Aib-E-G-T-Iva-I-S-D-L-S-I-Aib-K[{AEEA}2-gGlu-C18OH]-D-R-I-H-Q-Aib-E-Mph-I-E-W-L-L-A-Q-R-G-NH2], the EC50 [1] was 0.0179 nM.

Work on `CC[C@H](C)[C@H](NC(=O)[C@H](Cc1ccccc1)NC(=O)[C@H](CCC(=O)O)NC(=O)[C@H](CCC(=O)O)NC(=O)[C@H](CCC(N)=O)NC(=O)[C@H](Cc1c[nH]cn1)NC(=O)[C@@H](NC(=O)[C@H](CCCNC(=N)N)NC(=O)[C@H](CC(=O)O)NC(=O)[C@H](CCCCNC(=O)COCCOCCNC(=O)COCCOCCNC(=O)CC[C@H](NC(=O)CCCCCCCCCCCCCCCCC(=O)O)C(=O)O)NC(=O)C(C)(C)NC(=O)[C@@H](NC(=O)[C@H](CO)NC(=O)[C@H](CC(C)C)NC(=O)[C@H](CC(=O)O)NC(=O)[C@H](CO)NC(=O)[C@@H](NC(=O)[C@@](C)(NC(=O)[C@@H](NC(=O)CNC(=O)[C@H](CCC(=O)O)NC(=O)C(C)(C)NC(=O)[C@@H](N)Cc1ccc(O)cc1)[C@@H](C)O)C(C)C)[C@@H](C)CC)[C@@H](C)CC)[C@@H](C)CC)C(=O)N[C@@H](CCC(=O)O)C(=O)N[C@@H](Cc1c[nH]c2ccccc12)C(=O)N[C@@H](CC(C)C)C(=O)N[C@@H](CC(C)C)C(=O)N[C@@H](C)C(=O)N[C@@H](CCC(N)=O)C(=O)NCC(=O)N1CCC[C@H]1C(=O)N[C@@H](CO)C(=O)N[C@@H](CO)C(=O)NCC(=O)N[C@@H](C)C(=O)N1CCC[C@H]1C(=O)N1CCC[C@H]1C(=O)N1CCC[C@H]1C(=O)N[C@@H](CO)C(N)=O` [SEQ ID NO: 26, H2N-Y-Aib-E-G-T-Mva-I-S-D-L-S-I-Aib-K[{AEEA}2-gGlu-C18OH]-DRIHQEEFIEWLLAQGPSSGAPPPS-NH2] (H-Y[Aib]EGT[αMeV]ISDLSI[Aib]K([AEEA-AEEA-γGlu-C18 diacid])DRIHQEEFIEWLLAQGPSSGAPPPS-NH2) yielded an EC50 [1] of 0.0602 nM.

In the case of `CC[C@H](C)[C@H](NC(=O)[C@H](Cc1ccccc1)NC(=O)[C@H](CCC(=O)O)NC(=O)C(C)(C)NC(=O)[C@H](CCC(N)=O)NC(=O)[C@H](CCCCNC(=O)COCCOCCNC(=O)COCCOCCNC(=O)CC[C@H](NC(=O)CCCCCCCCCCCCCCCCC(=O)O)C(=O)O)NC(=O)[C@H](CCC(N)=O)NC(=O)[C@H](CCC(=O)O)NC(=O)[C@H](CCC(=O)O)NC(=O)[C@H](CC(C)C)NC(=O)C(C)(C)NC(=O)[C@@H](NC(=O)[C@H](CO)NC(=O)[C@H](CC(C)C)NC(=O)[C@H](CC(=O)O)NC(=O)[C@H](CO)NC(=O)[C@@H](NC(=O)[C@H](Cc1ccccc1)NC(=O)[C@@H](NC(=O)CNC(=O)[C@H](CCC(=O)O)NC(=O)C(C)(C)NC(=O)[C@@H](N)Cc1ccc(O)cc1)[C@@H](C)O)[C@@H](C)CC)[C@@H](C)CC)C(=O)N[C@@H](CCC(=O)O)C(=O)N[C@@H](Cc1c[nH]c2ccccc12)C(=O)N[C@@H](CC(C)C)C(=O)N[C@@H](CC(C)C)C(=O)N[C@@H](C)C(=O)N[C@@H](CCC(N)=O)C(=O)NCC(=O)N1CCC[C@H]1C(=O)N[C@@H](CO)C(=O)N[C@@H](CO)C(=O)NCC(=O)N[C@@H](C)C(=O)N1CCC[C@H]1C(=O)N1CCC[C@H]1C(=O)N1CCC[C@H]1C(=O)N[C@@H](CO)C(N)=O` [SEQ ID NO: 36, H2N-Y-Aib-E-G-T-F-I-S-D-L-S-I-Aib-L-E-E-Q-K[{AEEA}2-gGlu-C18OH]-Q-Aib-E-F-I-E-W-L-L-A-Q-G-P-S-S-G-A-P-P-P-S-NH2] (H-Y[Aib]EGTFISDLSI[Aib]LEEQK([AEEA-AEEA-γGlu-C18 diacid])Q[Aib]EFIEWLLAQGPSSGAPPPS-NH2), the IC50 [2] is reported as 0.2 nM, the EC50 (human GIP receptor [3]; read-out: hGIPR EC50) is reported as 0.3 nM and the Emax (human GIP receptor [3]; read-out: hGIPR Emax) is reported as 104%. It also gave an EC50 [4] of over 10 nM and a solubility at 24 h [5] of over 10.7 mg/mL.

B1: SEQ ID NO: 35 (peptide)
peptide: Y[Aib]EGTFISDLSI[Aib]K([AEEA-AEEA-γGlu-C18 diacid])DRIHQEEFIQWLLAQGPSSGAPPPS-NH2
modifications: N-terminus assumed
SMILES: CC[C@H](C)[C@H](NC(=O)[C@H](Cc1ccccc1)NC(=O)[C@H](CCC(=O)O)NC(=O)[C@H](CCC(=O)O)NC(=O)[C@H](CCC(N)=O)NC(=O)[C@H](Cc1c[nH]cn1)NC(=O)[C@@H](NC(=O)[C@H](CCCNC(=N)N)NC(=O)[C@H](CC(=O)O)NC(=O)[C@H](CCCCNC(=O)COCCOCCNC(=O)COCCOCCNC(=O)CC[C@H](NC(=O)CCCCCCCCCCCCCCCCC(=O)O)C(=O)O)NC(=O)C(C)(C)NC(=O)[C@@H](NC(=O)[C@H](CO)NC(=O)[C@H](CC(C)C)NC(=O)[C@H](CC(=O)O)NC(=O)[C@H](CO)NC(=O)[C@@H](NC(=O)[C@H](Cc1ccccc1)NC(=O)[C@@H](NC(=O)CNC(=O)[C@H](CCC(=O)O)NC(=O)C(C)(C)NC(=O)[C@@H](N)Cc1ccc(O)cc1)[C@@H](C)O)[C@@H](C)CC)[C@@H](C)CC)[C@@H](C)CC)C(=O)N[C@@H](CCC(N)=O)C(=O)N[C@@H](Cc1c[nH]c2ccccc12)C(=O)N[C@@H](CC(C)C)C(=O)N[C@@H](CC(C)C)C(=O)N[C@@H](C)C(=O)N[C@@H](CCC(N)=O)C(=O)NCC(=O)N1CCC[C@H]1C(=O)N[C@@H](CO)C(=O)N[C@@H](CO)C(=O)NCC(=O)N[C@@H](C)C(=O)N1CCC[C@H]1C(=O)N1CCC[C@H]1C(=O)N1CCC[C@H]1C(=O)N[C@@H](CO)C(N)=O
notes: Synthetic peptide, 39 residues (Gln at 24)
For B1, the “EC50 hGLP-1R 0.1% BSA (cAMP, HEK-293)” value (human GLP-1 receptor) was over 10 nM, the “EC50 hGIPR 0% HSA (cAMP, HEK-293)” value (human GIP receptor [6]) was 0.24 pM and the “EC50 hGIPR 0.1% BSA (cAMP, HEK-293)” value (human GIP receptor [6]) was 10.7 pM. The “hGIPR EC50 (cAMP, human adipocytes)” value (human GIP receptor [7]) was 1.3 nM and the “hGIPR Emax (cAMP, human adipocytes)” value (human GIP receptor [7]) was 120%.
